Patent US20250134869A1, “Pyrrolo[2,3-d]pyrimidinyl, Pyrrolo[2,3-b]pyrazinyl and Pyrrolo[2,3-d]pyridinyl Acryla-mides” (Pfizer Inc, priority 2021, published 2025)
Like-named read-outs stand apart in the source and are kept apart here.

Biological target: JAK3 enzyme (Homo sapiens (Human), UniProt P52333)
Assay: JAK Caliper Enzyme Assay at 4 μM or 1 mM ATP
Assay type: biochemical
[1] = read-out: JAK3 (4 μM ATP) IC50, 4 μM ATP
[2] = read-out: JAK3 (1 mM ATP) IC50, 1 mM ATP

Chain of JAK3 enzyme (P52333 whole entry, species assumed): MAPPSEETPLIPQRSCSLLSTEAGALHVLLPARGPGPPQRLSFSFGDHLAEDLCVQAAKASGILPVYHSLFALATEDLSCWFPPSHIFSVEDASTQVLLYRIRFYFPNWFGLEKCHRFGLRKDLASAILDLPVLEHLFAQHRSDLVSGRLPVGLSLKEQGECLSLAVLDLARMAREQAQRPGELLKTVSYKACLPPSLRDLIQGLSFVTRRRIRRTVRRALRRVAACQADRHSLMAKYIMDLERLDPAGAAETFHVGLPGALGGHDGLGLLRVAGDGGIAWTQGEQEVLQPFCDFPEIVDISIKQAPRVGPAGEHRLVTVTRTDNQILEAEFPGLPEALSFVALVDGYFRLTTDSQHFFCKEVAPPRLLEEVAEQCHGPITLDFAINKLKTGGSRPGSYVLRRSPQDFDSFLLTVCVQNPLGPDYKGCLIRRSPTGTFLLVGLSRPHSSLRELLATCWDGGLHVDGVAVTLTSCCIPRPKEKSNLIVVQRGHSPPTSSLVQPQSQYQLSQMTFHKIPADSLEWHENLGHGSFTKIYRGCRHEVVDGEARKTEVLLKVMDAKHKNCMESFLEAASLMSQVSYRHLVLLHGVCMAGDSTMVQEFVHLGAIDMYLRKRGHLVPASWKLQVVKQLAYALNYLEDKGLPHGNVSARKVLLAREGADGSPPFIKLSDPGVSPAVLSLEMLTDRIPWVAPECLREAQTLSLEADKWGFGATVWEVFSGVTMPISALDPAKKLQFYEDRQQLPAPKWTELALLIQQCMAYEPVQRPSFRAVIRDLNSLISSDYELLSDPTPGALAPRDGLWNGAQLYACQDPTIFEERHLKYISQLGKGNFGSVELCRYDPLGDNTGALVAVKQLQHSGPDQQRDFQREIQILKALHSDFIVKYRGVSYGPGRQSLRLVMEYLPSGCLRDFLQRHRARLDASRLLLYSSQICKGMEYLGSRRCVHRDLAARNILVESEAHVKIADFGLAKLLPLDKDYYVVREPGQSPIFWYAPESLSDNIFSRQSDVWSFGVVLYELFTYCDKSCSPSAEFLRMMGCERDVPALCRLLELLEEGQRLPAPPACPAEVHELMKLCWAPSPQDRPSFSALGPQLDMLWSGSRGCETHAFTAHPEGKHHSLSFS

For `C=CC(=O)N1CCC(Nc2cnc3[nH]cc(C(=O)NC4CCCCC4(F)F)c3n2)CC1` (stereo not drawn) [Example 256, 2-[(1-acryloylpiperidin-4-yl)amino]-N-(2,2-difluorocyclohexyl)-5H-pyrrolo[2,3-b]pyrazine-7-carboxamide], the IC50 [1] was 0.2 nM and the IC50 [2] was 7.9 nM.
Work on `CN(C)C/C=C/C(=O)N1CCC[C@H](Nc2ncnc3[nH]ccc23)C1` [Example 106, (2E)-4-(dimethylamino)-1-[(3S)-3-(7H-pyrrolo[2,3-d]pyrimidin-4-ylamino)piperidin-1-yl]but-2-en-1-one] yielded an IC50 [1] of 49.1 nM.
With `C=CC(=O)N1CCN(c2cnc3[nH]cc(C(=O)NC(C)C)c3n2)[C@@H](CC)C1` [Example 325, 2-[(2S)-4-acryloyl-2-ethylpiperazin-1-yl]-N-(propan-2-yl)-5H-pyrrolo[2,3-b]pyrazine-7-carboxamide] the IC50 [1] was 5 nM and the IC50 [2] was 480 nM.
`N#CC(C(=O)N1CCC[C@@H](Nc2ncnc3[nH]ccc23)C1)=C1CCOCC1` [Example 101, 3-oxo-3-[(3R)-3-(7H-pyrrolo[2,3-d]pyrimidin-4-ylamino)piperidin-1-yl]-2-(tetrahydro-4H-pyran-4-ylidene)propanenitrile] gave an IC50 [1] of 881 nM and an IC50 [2] greater than 10000 nM.
In the case of `C=CC(=O)N1CC[C@@H](Nc2cnc3[nH]cc(C(=O)NC(C)C)c3n2)[C@H](F)C1` [Example 291, 2-{[(3R,4R)-1-acryloyl-3-fluoropiperidin-4-yl]amino}-N-(propan-2-yl)-5H-pyrrolo[2,3-b]pyrazine-7-carboxamide], the IC50 [1] is reported as 0.2 nM and the IC50 [2] is reported as 9.2 nM.
With `C=CC(=O)N1CCC[C@@H](Nc2ncnc3[nH]cc(-c4cncc(OC)c4)c23)C1` [Example 24, 1-[(3R)-3-{[5-(5-methoxypyridin-3-yl)-7H-pyrrolo[2,3-d]pyrimidin-4-yl]amino}piperidin-1-yl]prop-2-en-1-one] the IC50 [1] was 1.2 nM and the IC50 [2] was 98.1 nM.
In the case of `C=CC(=O)N1CCC(Nc2cnc3[nH]cc(C(=O)NC4CC(F)(F)C4)c3n2)CC1` [Example 245, 2-[(1-acryloylpiperidin-4-yl)amino]-N-(3,3-difluorocyclobutyl)-5H-pyrrolo[2,3-b]pyrazine-7-carboxamide], the IC50 [1] is reported as 0.2 nM and the IC50 [2] is reported as 17.9 nM.
`C=CC(=O)N1C[C@H](Nc2ncnc3[nH]ccc23)C[C@@H](N(C)C)C1` [Example 88, 1-[(3R,5R)-3-(Dimethylamino)-5-(7H-pyrrolo[2,3-d]pyrimidin-4-ylamino)piperidin-1-yl]prop-2-en-1-one] was tested, and the IC50 [1] was 18.2 nM and the IC50 [2] was 3390 nM.
`C=CC(=O)N1C[C@H](Nc2ncnc3[nH]ccc23)C[C@@H](OC)C1` [Example 77, 1-[(3R,5R)-3-Methoxy-5-(7H-pyrrolo[2,3-d]pyrimidin-4-ylamino)piperidin-1-yl]prop-2-en-1-one] showed an IC50 [1] of 15.5 nM and an IC50 [2] of 2070 nM.
`C=CC(=O)N1CCC(Nc2cnc3[nH]ccc3n2)CC1` [Example 176, 1-[4-(5H-pyrrolo[2,3-b]pyrazin-2-ylamino)piperidin-1-yl]prop-2-en-1-one] showed an IC50 [1] of 7.2 nM and an IC50 [2] of 910 nM.
Work on `C=CC(=O)N1CCN(c2cnc3[nH]cc(C(=O)NC(C)C)c3n2)[C@@H](C)C1` [Example 297, 2-[(2S)-4-acryloyl-2-methylpiperazin-1-yl]-N-(propan-2-yl)-5H-pyrrolo[2,3-b]pyrazine-7-carboxamide] yielded an IC50 [1] of 1.5 nM and an IC50 [2] of 181 nM.
For `C=CC(=O)N1CCC(Nc2cnc3[nH]cc(C(=O)NC(C)(C)CC)c3n2)CC1` [Example 276, 2-[(1-acryloylpiperidin-4-yl)amino]-N-(2-methylbutan-2-yl)-5H-pyrrolo[2,3-b]pyrazine-7-carboxamide], the IC50 [1] was less than 0.3 nM and the IC50 [2] was 11.1 nM.
Compound `C=CC(=O)N1CCCC(Nc2ncnc3[nH]ccc23)C1` (stereo not drawn) [Example 103, 1-[3-(7H-pyrrolo[2,3-d]pyrimidin-4-ylamino)piperidin-1-yl]prop-2-en-1-one] has an IC50 [1] of 4.7 nM.
Compound `C=CC(=O)N1CCC(Oc2cnc3[nH]cc(-c4cccc(C(=O)NC)c4)c3n2)CC1` [Example 227, 3-{2-[(1-acryloylpiperidin-4-yl)oxy]-5H-pyrrolo[2,3-b]pyrazin-7-yl}-N-methylbenzamide] has an IC50 [1] of 0.9 nM and an IC50 [2] of 71.8 nM.
In the case of `C=CC(=O)N1CCC[C@@H](Nc2ncnc3[nH]ccc23)C1` [Example 12, (R)-1-(3-((7H-Pyrrolo[2,3-d]pyrimidin-4-yl)amino)piperidin-1-yl)prop-2-en-1-one], the IC50 [1] is reported as 0.7 nM and the IC50 [2] is reported as 56.8 nM.
`C=CC(=O)N1[C@@H]2CC[C@H]1CN(c1cnc3[nH]cc(C(=O)NC(C)C)c3n1)C2` [Example 301, 2-[(1R,5S)-8-acryloyl-3,8-diazabicyclo[3.2.1]oct-3-yl]-N-(propan-2-yl)-5H-pyrrolo[2,3-b]pyrazine-7-carboxamide] gave an IC50 [1] of 0.6 nM and an IC50 [2] of 89 nM.
With `C=CC(=O)N1CCC(Nc2cnc3[nH]cc(C(=O)NC4CCCC4(F)F)c3n2)CC1` (stereo not drawn) [Example 234, 2-[(1-acryloylpiperidin-4-yl)amino]-N-(2,2-difluorocyclopentyl)-5H-pyrrolo[2,3-b]pyrazine-7-carboxamide] the IC50 [1] was less than 0.3 nM and the IC50 [2] was 4.9 nM.
Compound `C=CC(=O)N1CCN(c2cnc3[nH]cc(C(=O)NC(C)C)c3n2)C[C@H]1C(C)C` [Example 294, 2-[(3R)-4-acryloyl-3-(propan-2-yl)piperazin-1-yl]-N-(propan-2-yl)-5H-pyrrolo[2,3-b]pyrazine-7-carboxamide] has an IC50 [1] of 1.9 nM and an IC50 [2] of 235 nM.
Work on `CC/C=C(\C#N)C(=O)N1CCC[C@@H](Nc2ncnc3[nH]ccc23)C1` [Example 99, (2E)-2-{[(3R)-3-(7H-pyrrolo[2,3-d]pyrimidin-4-ylamino)piperidin-1-yl]carbonyl}pent-2-enenitrile] yielded an IC50 [1] of 255 nM and an IC50 [2] greater than 10000 nM.
`COC(=O)C/C=C/C(=O)N1CCC[C@@H](Nc2ncnc3[nH]ccc23)C1` [Example 97, methyl (3E)-5-oxo-5-[(3R)-3-(7H-pyrrolo[2,3-d]pyrimidin-4-ylamino)piperidin-1-yl]pent-3-enoate] was tested, and the IC50 [1] was 904 nM and the IC50 [2] was greater than 10000 nM.
With `C=C(C)C(=O)N1CCC[C@@H](N2CC(C)c3c[nH]c4ncnc2c34)C1` (mixture of isomers) [Example 153, 2-Methyl-1-[(3R)-3-(3-methyl-3,4-dihydro-1,5,6,8-tetraazaacenaphthylen-5 (1H)-yl)piperidin-1-yl]prop-2-en-1-one] the IC50 [1] was 9440 nM.
For `C=CC(=O)N1CCC(Nc2cnc3[nH]cc(-c4ccccc4)c3n2)CC1` [Example 209, 1-{4-[(7-phenyl-5H-pyrrolo[2,3-b]pyrazin-2-yl)amino]piperidin-1-yl}prop-2-en-1-one], the IC50 [1] was 0.2 nM and the IC50 [2] was 14.3 nM.
Compound `C=CC(=O)N1CCC(Nc2cnc3[nH]cc(C(=O)NC4CCCC(F)(F)C4)c3n2)CC1` (stereo not drawn) [Example 236, 2-[(1-acryloylpiperidin-4-yl)amino]-N-(3,3-difluorocyclohexyl)-5H-pyrrolo[2,3-b]pyrazine-7-carboxamide] has an IC50 [1] of 0.1 nM and an IC50 [2] of 8.3 nM.
`C=CC(=O)N1CCN(c2cnc3[nH]cc(C(=O)NC(C)C)c3n2)[C@H](C)C1` [Example 307, 2-[(2R)-4-acryloyl-2-methylpiperazin-1-yl]-N-(propan-2-yl)-5H-pyrrolo[2,3-b]pyrazine-7-carboxamide] showed an IC50 [1] of 1.1 nM and an IC50 [2] of 128 nM.
Work on `C=CC(=O)N1CCC[C@@H](Nc2ncnc3[nH]cc(CCO)c23)C1` [Example 55, (R)-1-(3-((5-(2-Hydroxyethyl)-7H-pyrrolo[2,3-d]pyrimidin-4-yl)amino)piperidin-1-yl)prop-2-en-1-one] yielded an IC50 [1] of 2 nM and an IC50 [2] of 203 nM.
For `COCCc1c[nH]c2ncnc(N[C@@H]3CCCN(C(=O)/C=C/CN(C)C)C3)c12` [Example 108, (2E)-4-(dimethylamino)-1-[(3R)-3-{[5-(2-methoxyethyl)-7H-pyrrolo[2,3-d]pyrimidin-4-yl]amino}pipendin-1-yl]but-2-en-1-one], the IC50 [1] was 528 nM and the IC50 [2] was greater than 10000 nM.
`C=CC(=O)N1CC[C@@H]2CN(c3cnc4[nH]cc(C(=O)NC(C)C)c4n3)C[C@@H]21` [Example 170, 2-[(3aR,6aR)-1-acryloylhexahydropyrrolo[3,4-b]pyrrol-5(1H)-yl]-N-(propan-2-yl)-5H-pyrrolo[2,3-b]pyrazine-7-carboxamide] gave an IC50 [1] of 3.3 nM and an IC50 [2] of 392 nM.
`C=CC(=O)N1CC[C@H]2CN(c3ncnc4[nH]ccc34)[C@H]2C1` [Example 134, 1-[(1R,6S)-8-(7H-Pyrrolo[2,3-d]pyrimidin-4-yl)-3,8-diazabicyclo[4.2.0]oct-3-yl]prop-2-en-1-one] gave an IC50 [1] of 71.2 nM.
Compound `C/C=C\C(=O)N1CCC[C@@H](Nc2ncnc3[nH]ccc23)C1` [Example 102, (2Z)-1-[(3R)-3-(7H-pyrrolo[2,3-d]pyrimidin-4-ylamino)piperidin-1-yl]but-2-en-1-one] has an IC50 [1] of 353 nM and an IC50 [2] greater than 10000 nM.
For `C=CC(=O)N1CCC[C@@H](Nc2ncnc3[nH]cc(-c4cnc(N5CCOCC5)nc4)c23)C1` [Example 35, 1-[(3R)-3-({5-[2-(morpholin-4-yl)pyrimidin-5-yl]-7H-pyrrolo[2,3-d]pyrimidin-4-yl}amino)piperidin-1-yl]prop-2-en-1-one], the IC50 [1] was 83 nM.
`C=CC(=O)N1CC[C@@]2(C)CCN(c3ncnc4[nH]ccc34)[C@H]2C1` [Example 122, 1-((3aR,7aR)-3a-Methyl-1-(7H-pyrrolo[2,3-d]pyrimidin-4-yl)hexahydro-1H-pyrrolo[2,3-c]pyridin-6 (2H)-yl)prop-2-en-1-one] was tested, and the IC50 [1] was 75.6 nM and the IC50 [2] was greater than 10000 nM.
Work on `C=CC(=O)N1CCC(Nc2cnc3[nH]cc(C(=O)NCCCC#N)c3n2)CC1` [Example 242, 2-[(1-acryloylpiperidin-4-yl)amino]-N-(3-cyanopropyl)-5H-pyrrolo[2,3-b]pyrazine-7-carboxamide] yielded an IC50 [1] of 0.1 nM and an IC50 [2] of 10.7 nM.
`C=CC(=O)N1CC[C@@H](F)[C@@H](Nc2ncnc3[nH]ccc23)C1` [Example 54, 1-((3S,4R)-3-((7H-Pyrrolo[2,3-d]pyrimidin-4-yl)amino)-4-fluoropiperidin-1-yl)prop-2-en-1-one] was tested, and the IC50 [1] was 1.7 nM and the IC50 [2] was 192 nM.
In the case of `C=CC(=O)N1CCC(Nc2cnc3[nH]cc(C(=O)NC4CCCCC4)c3n2)CC1` [Example 278, 2-[(1-acryloylpiperidin-4-yl)amino]-N-cyclohexyl-5H-pyrrolo[2,3-b]pyrazine-7-carboxamide], the IC50 [1] is reported as 0.2 nM and the IC50 [2] is reported as 6.3 nM.
